Experimental data: a compilation of properties of binary mixtures (doi:10.1016/j.molliq.2020.113127)

Test: xn = mol fraction of the nth substance listed
Conditions: 101 kPa

Row | viscosity (313.15 K, x1 = 0.25) | viscosity (318.15 K, x1 = 0.25) | viscosity (328.15 K, x1 = 0.25) | viscosity (333.15 K, x1 = 0.25) | Compound | viscosity (298.15 K, x1 = 0.333) | viscosity (303.15 K, x1 = 0.333) | viscosity (308.15 K, x1 = 0.333) | viscosity (313.15 K, x1 = 0.333) | viscosity (318.15 K, x1 = 0.333) | viscosity (323.15 K, x1 = 0.333)
1 | – | – | – | – | CC[N+](CC)(CC)CC.[Cl-] + CC(=O)O | 34.46 mPa·s | 27.81 mPa·s | 22.91 mPa·s | 19.51 mPa·s | 16.53 mPa·s | 13.93 mPa·s
2 | 53.81 mPa·s | 40.74 mPa·s | 25.16 mPa·s | 20.33 mPa·s | C[P+](c1ccccc1)(c1ccccc1)c1ccccc1.[Br-] + OCCO | – | – | – | – | – | –
